Measured values as given in patent US20240000724A1, “Compositions and Methods for Treatment or Prevention of Oral Mucositis” (PATHWAYS BIOSCIENCE, LLC, priority 2015, published 2024).

Tested on: Nrf2 (HepG2 cells)
Test: Nrf2 induction by PB201 analogs in HepG2 Nrf2/ARE promoter-luciferase reporter cells
Type: cell-based, human
Conditions: 0-7 ug/mL, read 24 h after start of stimulation
Text: In this Example, the effects of compounds that are structurally related to 1,3-diphenyl-1,3-propanedione are investigated.

SMILES	Nrf2 activation
O=C(CCCC(=O)c1ccccc1)c1ccccc1 [1,3-dibenzoylpropane]	activated Nrf2
O=C(c1ccccc1)C(Br)C(=O)c1ccccc1 [2-bromo-1,3-diphenyl-1,3-propanedione]	activated Nrf2
